Data published in PMC3433414, “Oral Administration of the Pimelic Diphenylamide HDAC Inhibitor HDACi 4b Is Unsuitable for Chronic Inhibition of HDAC Activity in the CNS In Vivo” (PLoS ONE, 2012).
pIC50: −log10 of the molar value. Entries after “also recorded” stand apart in the source; their conditions may differ.

Legend:
[1] = Solubility in water, formulations and DMSO; type: physicochemical
Protocol: (§1) Thomas and colleagues reported that a solution of 4b at 1 mg/mL was previously obtained using this procedure. […] We therefore prepared both TFA and hydrochloride (HCl) salts of 4b to establish whether they could offer improved solubility. Neither salt form of 4b was particularly soluble in water (<1 mg/ml). […] A study of the stability of the TFA salt also raised another more worrying issue in the use of 2-hydroxypropyl-β-cyclodextrin–complexed 4b salts for potential in vivo studies. […] The 4b. TFA cyclodextrin suspension targeted at 1 mg/ml with heating gave an initial (day 1) measured value of 0.75 mg/ml total 4b, with only 0.27 mg/mL solubilised as quantified in the sample after filtration. The lower than expected initial quantification of 4b was most likely due to the TFA salt rapidly degrading upon heating. Indeed, we always found the presence of the cyclised benzimidazole conversion product, named throughout as product C1, in the salt formulations even at t = 0 after preparation. Furthermore, the suspension was not stable upon standing in the dark with gentle shaking at room temperature, with a further 28% decrease observed in parent (4b) concentration on day 7 analysis, compared to day 1.
As a consequence de novo formulation attempts were made with the stable free base form. After several trials with different excipients, we were able to reach a soluble formulation preparation of 1 mg/ml 4b in 2% N-methyl-2-pyrollidone, 18% polyethylene glycol 400, 10% solutol HS-15 and 70% (1% Lutrol F68 in water), a vehicle which we have previously used without any adverse effects in R6/2 model chronic efficacy trials, but is unlikely to be palatable to mice in drinking water. With this concentration, a single oral gavage dose will result in a maximum of 10 mg/kg dose level (assuming a maximum dose volume of […]), considerably lower than that estimated to have been used by Thomas et al (150 mg/kg day in drinking water). In an attempt to replicate the original dose level as close as possible, it became necessary to formulate the test compound in suspension. We achieved a stable homogeneous suspension of free base 4b up to 100 mg/ml in 0.5% carboxymethylcellulose (medium viscosity) in reverse osmosis deionized (RODI) water. This suspension was used to evaluate the oral pharmacokinetics of 4b in mice. […]

[2] = Chemical stability in formulation or solution; type: physicochemical
Protocol: as §1, with “TFA cyclodextrin suspension targeted at 1 mg/ml with heating gave an initial (day 1) measured value of 0.75 mg/ml total 4b, with only 0.27 mg/mL solubilised as quantified in the sample after filtration.” left out
According to Thomas et al, verification of an acute pharmacodynamic response (the reversal of transcriptional dysregulation in the R6/2 model) was achieved by the repeated once daily injection of 150 mg/kg 4b in 50∶50 DMSO: PBS for three consecutive days. […] The lack of any pharmacodynamic response predictive of central Class I HDAC inhibition when 4b was dosed orally at 150 mg/kg twice daily for 5 days confirmed this prediction.

[3] = Solubility in water, formulations and DMSO; type: physicochemical; settings: cyclodextrin formulation prepared without heating
[4] = target: T1, HDAC3-NcoR2 (Homo sapiens, UniProt O15379); experiment: Two-step fluorogenic deacetylase assay, recombinant HDAC3; type: biochemical; settings: standard 1 h pre-incubation conditions
T1 construct: purified recombinant human full length HDAC1 (cat# 50051), HDAC2 (cat# 50052), HDAC3-NcoR2 (cat# 50003); purchased BPS Bioscience (San Diego, CA) 50003
T1 sequence (O15379 whole entry): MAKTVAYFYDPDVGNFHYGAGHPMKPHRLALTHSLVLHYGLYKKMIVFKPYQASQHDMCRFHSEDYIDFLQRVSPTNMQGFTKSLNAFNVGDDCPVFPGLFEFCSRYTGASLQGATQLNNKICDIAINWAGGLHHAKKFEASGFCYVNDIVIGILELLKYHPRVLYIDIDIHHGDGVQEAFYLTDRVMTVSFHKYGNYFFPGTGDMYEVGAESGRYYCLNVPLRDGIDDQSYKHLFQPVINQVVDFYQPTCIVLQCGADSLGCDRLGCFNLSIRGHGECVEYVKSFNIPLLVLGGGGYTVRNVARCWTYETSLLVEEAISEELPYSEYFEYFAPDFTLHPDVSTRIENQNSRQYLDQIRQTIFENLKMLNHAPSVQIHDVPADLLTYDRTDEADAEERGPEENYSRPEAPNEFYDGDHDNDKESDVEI
T1 sequence (Q9Y618 395-489 partner limits assumed): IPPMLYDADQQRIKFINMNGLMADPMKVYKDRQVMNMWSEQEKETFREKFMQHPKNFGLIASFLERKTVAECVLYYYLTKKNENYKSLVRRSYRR
Protocol: As described, the length of compound-enzyme incubation has been reported to be critical for this class of HDAC inhibitors, where a unique time-dependent increase in affinity and subsequent potency has been observed [36]–[38]. […] To better mimic physiological conditions, our experiments were performed at 37°C as opposed to room temperature as reported in previous studies. […] To confirm that this shift was independent of the time of 4b in aqueous solution, 4b was applied immediately to the enzyme-substrate mix both after preparing in aqueous buffer, and 120 min after preparation.
To assess the biochemical and cellular potency of 4b and its conversion products/metabolites, we utilized the two-step fluorogenic assay which measures the HDAC-mediated catalytic conversion of synthetic acetylated lysine substrates. In brief, on deacetylation of the substrates by HDAC activity, a protease site is unmasked which allows subsequent trypsin-mediated cleavage and release of the highly flourescent AMC molecules in a subsequent step of the assay. The substrates used were Lys_Ac_AMC (Bachem I-1875) for HDAC3 and (Ac)Arg-Gly-Lys(Ac) (Bachem I-1925) for HDAC1 and HDAC2. The final substrates used for each enzyme assessment were carefully selected after assessing the catalytic turnover of each of these substrates against HDAC1, HDAC2 and HDAC3 respectively, and selecting the ones that performed best. To assess Class IIa enzyme activity (HDAC4, 5, 7, 9) and Class I HDAC8 activity, we used the alternative substrate Boc_Lys_TFA (Bachem I-1985), equivalent to substrate 4 of [42]. Class IIa HDACs have approximately 1000-fold less catalytic activity than Class 1 enzymes, and show only extremely low turnover of acetylated substrates due to a Tyr to His mutation in the active site. However, the relatively labile and sterically more demanding trifluoracetyl group is readily hydrolyzed by the catalytically less avid Class IIa enzymes, allowing measurement of Class IIa activity using the 2-step fluorogenic assay. Intriguingly the Boc_Lys_TFA substrate seems to show almost total selectivity for Class IIa enzymes over class I and Class IIb enzymes, with the exception of HDAC8 ([42], and internal data).
(§2) For evaluation of the class selectivity of the compounds, we assessed inhibition against purified recombinant human full length HDAC1 (cat# 50051), HDAC2 (cat# 50052), HDAC3-NcoR2 (cat# 50003) and HDAC8 (cat# 50008): as representative of Class I activity; catalytic domain HDAC4(αα 648–1057), HDAC5 (αα 657–1123; cat # 50005), HDAC7 (αα 518-end; cat # 50007) and HDAC9 (αα 604–1066; cat # 50009) activity: representing all Class IIa activity; and full length HDAC6 (cat#50006): representing Class IIb activity. With the exception of purified catalytic domain HDAC4, which was prepared for us by Emerald Biosciences (Seattle, WA), all HDAC enzymes were purchased from BPS Bioscience (San Diego, CA).
Unless otherwise stated in the text, assays were run in the following format in 384-well plates using automated liquid handling procedures. Briefly, frozen enzyme stock and compounds were diluted in assay buffer (50 mM Tris-HCl, 137 mM NaCl, 2.7 mM KCl, 1 mM MgCl2 at pH 8.0) and added to plates at concentrations sufficient to achieve a 16-point concentration-response curve from 50 µM to 1 nM at 1% DMSO final concentration, after addition of all reagents. Substrate diluted in assay buffer was then added and plates were incubated after brief shaking for 60 min at 37°C. Following incubation, a developer/stop-step was introduced to terminate the reaction and cleave the fluorescent substrate: either the addition of trypsin with 10 µM Compound 26 [44] for the Class IIa enzymes, or trypsin with 5 µM Trichostatin A (TSA) for the Class I/IIb enzymes. Plates were briefly shaken and then returned to the incubator for a further 60 min, followed by measurement of fluorescence per well (Ex 355 nm, Em 460 nm) on a Perkin Elmer EnVision. […]

[5] = system: endogenous Class I HDACs/HDAC6; experiment: Cellular HDAC assay, Boc_Lys_Ac substrate, Jurkat E6.1 cells; type: cell-based; settings: up to 50 µM; 5 h incubation
Protocol: Briefly, Jurkat E6.1 cells (obtained from the European Collection of Cell Cultures (ECACC)) were plated into 384 well plates at 75,000 cells/well in cellular assay buffer (RPMI without phenol red, 0.1% Fetal Bovine Serum, 10 mM HEPES, 1 mM Sodium Pyruvate). […] Fluorescent counts were read the following morning on the Perkin Elmer EnVision.
Each compound was tested in duplicate in concentration-response format on 3 separate days. […] A full dose response of reference compound was always included alongside the profiling, to ensure that assay parameters remained within acceptable limits.

[6] = Plasma stability; type: in vitro ADME, mouse; settings: mouse plasma
Protocol: Incubations of test compound (5 µM initial concentration, n = 2) were carried out with pooled mouse plasma or BSA (45 mg/mL in 0.1 M phosphate buffered saline). The incubations were performed at 37°C. Samples (50 µL) were obtained from the incubation at 0, 10, 30, 120, 240, 360 and 1440 min, and added to 150 µL of acetonitrile containing carbamazepine as analytical internal standard to terminate the reaction. Samples were centrifuged and the supernatant fractions analysed by LC-MS/MS.
For half-life determinations, the instrument responses (peak areas) normalized for internal standard response, were referenced to the zero time-point samples (as 100%) in order to determine the percentage of compound remaining. Ln plots of the % remaining, for each compound, were used to determine the half-life for the plasma incubations. Half-life values were calculated from the relationship:-. [drawing 1] Where λ was the slope of the natural logarithmic (Ln) concentration vs time curve.
When quantification was required, calibration standards for parent compound and metabolites were prepared in control plasma and extracted and analysed as described for the study samples. Quantification of parent compound or metabolite was by extrapolation from the calibration line.

[7] = Hepatic microsomal stability; type: in vitro ADME, mouse; settings: mouse hepatic microsomes; parent 4b
Protocol: Incubations of test compounds (1 µM initial concentration, n = 2) were carried out with pooled hepatic microsomes (0.25 mg protein/mL in 0.1 M phosphate buffer pH 7.4). NADPH (1 mM) was added to initiate the reactions. The incubations were performed at 37°C. Samples (100 µL) were taken from the incubation at 0, 5, 10, 20 and 40 min and added to 100 µL of acetonitrile containing carbamazepine as analytical internal standard, to terminate the reaction. Samples were centrifuged and the supernatant fractions analysed by LC-MS/MS. The instrument responses (i.e. chromatographic peak heights), normalized by internal standard response were referenced to the zero time-point samples (as 100%) in order to determine the percentage of compound remaining.
Ln plots of the % remaining, for each compound, were used to determine the half-life for the microsomal incubations.
Half-life values were calculated from the relationship. [drawing 2] where λ was the slope of the Ln concentration vs time curve.
The in vitro intrinsic clearance, CLint (µL/min/mg microsomal protein), was calculated using the following formula: [drawing 3]
When quantification was required, calibration standards for parent compound and metabolites were prepared in control hepatic microsomes and extracted and analysed as described for the study samples. Quantification of parent compound or metabolite was by extrapolation from the calibration line.

[8] = system: HDACs; experiment: Biochemical HDAC assays (whole panel); design: species or system human; settings: up to 50 µM
Description: To assess the biochemical and cellular potency of 4b and its conversion products/metabolites, we utilized the two-step fluorogenic assay which measures the HDAC-mediated catalytic conversion of synthetic acetylated lysine substrates. In brief, on deacetylation of the substrates by HDAC activity, a protease site is unmasked which allows subsequent trypsin-mediated cleavage and release of the highly flourescent AMC molecules in a subsequent step of the assay. The substrates used were Lys_Ac_AMC (Bachem I-1875) for HDAC3 and (Ac)Arg-Gly-Lys(Ac) (Bachem I-1925) for HDAC1 and HDAC2. […] However, the relatively labile and sterically more demanding trifluoracetyl group is readily hydrolyzed by the catalytically less avid Class IIa enzymes, allowing measurement of Class IIa activity using the 2-step fluorogenic assay. […]
as §2, with “With the exception of purified catalytic domain HDAC4, which was prepared for us by Emerald Biosciences (Seattle, WA), all HDAC enzymes were purchased from BPS Bioscience (San Diego, CA).” left out

[9] = system: FXN; design: method as in PMID 16921367; settings: at the concentration tested; cited from earlier work
[10] = cyclodextrin suspension targeted at 1 mg/ml, with heating

## Cc1ccc(NC(=O)CCCCCC(=O)Nc2ccccc2N)cc1.O=C(O)C(F)(F)F [4b. TFA]
[1]; [10]
  4b solubilised (after filtration), day 1: 0.27 mg/mL
  total 4b measured in suspension, day 1: 0.75 mg/mL
[1]; prepared at 1 mg/ml
  solubility in DMSO: soluble
[1]; salt forms
  solubility in water: < 1000 µg/mL
[2]; 1 mg/ml in DMSO
  day 7 value as % of value at day 1: 59%
[2]; cyclodextrin suspension, dark, gentle shaking, room temperature
  decrease in parent (4b) concentration, day 7 compared to day 1: 28%
[2]; eg. aqueous acetonitrile, ambient temperature, more rapidly when heated
  cyclisation to benzimidazole product in solution: cyclised slowly
[3]
  4b dissolved (filtrate of suspension): 0.3 mg/mL

## Nc1ccccc1NC(=O)CCCCCC(=O)O [Compound M1]
[4]
  pIC50: 4.59
[5]
  activity in the Class I cellular HDAC (Boc_Lys_Ac) assay: totally inactive; also recorded: neither inhibits HDACs
[6]; parent 4b
  share of the metabolism of parent accounted for by metabolite: 78%
[7]
  share of the metabolism of parent accounted for by metabolite: 42%

## O=C(O)CCCCCc1nc2ccccc2[nH]1 [Compound M3]
[5]
  activity in the Class I cellular HDAC (Boc_Lys_Ac) assay: inactive
[8]
  activity in the biochemical HDAC assays: inactive
[6]; parent C1
  share of the metabolism of parent accounted for by metabolite: 80%

## BML-210 [reference compound]
[9]
  effect on FXN mRNA: increase FXN mRNA without cytotoxicity
